Where a name gives a salt, the structure may show the parent alone. Read-outs that look alike come from different tables or passages of the source.
Tests used:
[1] = system: fibrin- and LPS-induced microglia activation; test: cells; format: cell-based, rat
[2] = system: primary rat microglia;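 on Fibrin % cell toxicity: share of dead cells sized under 150 µm2 at 10 µM in fibrin-stimulated microglia HTS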
[3] = system: LPS-induced microglia activation; test: Image-based assay of LPS-induced microglia activation (HTS and dose response); format: cell-based, rat
[4] = system: primary rat microglia; remark: listed apart in the source;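 on Fibrin % cell toxicity: share of dead cells sized under 150 µm2 at 10 µM in fibrin-stimulated microglia HTS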
[5] = system: fibrin-induced microglia activation; test: Image-based assay of fibrin-induced microglia activation (HTS and dose response); format: cell-based, rat; settings: for inhibition at 10 µM: read-out: Fibrin % inhibition
[6] = quadrant by fibrin and LPS inhibition in HTS of 1907 compounds
[7] = Rattus norvegicus, Microglia, 48 h, primary microglia HTS, LPS stimulation; increased cell size (>800 μm^2) as marker of activation; read-out: LPS % inhibition
[8] = Rattus norvegicus, Microglia, primary microglia HTS, fibrin stimulation, increased cell size (>800 μm^2) as marker of activation
[9] = Rattus norvegicus, Microglia, 48 h, read-out: LPS % inhibition
[10] = classification by fibrin and LPS inhibition, HTS at 10 μM
[11] = Rattus norvegicus, Microglia, primary microglia HTS, LPS stimulation, compounds at 10 μM; read-out: LPS % inhibition
[12] = Rattus norvegicus, Microglia, primary microglia HTS, fibrin stimulation, compounds at 10 μM
[13] = Rattus norvegicus, Microglia, primary HTS, 10 μM, LPS-stimulated primary microglia; read-out: LPS % inhibition
[14] = Rattus norvegicus, Microglia, primary HTS, 10 μM, fibrin-stimulated primary microglia
[15] = Rattus norvegicus, Microglia, 48 h, primary microglia HTS, LPS stimulation, activation = cell size >800 μm2; read-out: LPS % inhibition
[16] = Rattus norvegicus, Microglia, primary microglia HTS, fibrin stimulation, activation = cell size >800 μm2
[17] = Rattus norvegicus, Microglia, read-out: LPS % inhibition
[18] = classification by fibrin and LPS inhibition in HTS
[19] = Rattus norvegicus, Microglia, 48 h; read-out: LPS % inhibition
[20] = Rattus norvegicus, Microglia, primary microglia HTS, fibrin stimulation, cell size >800 μm2 as marker of activation

Structure (SMILES) | Fibrin % cell toxicity ([2]; rat) [%] | LPS % cell toxicity ([4]; rat) [%] | Quadrant (FIG. 5b) [1] | inhibition at 10 µM ([5]; Rattus norvegicus, Microglia) [%] | further results
Cc1cn(-c2cc(NC(=O)c3ccc(C)c(Nc4nccc(-c5cccnc5)n4)c3)cc(C(F)(F)F)c2)cn1 [Nilotinib] | 1 | 1 |  |  | Quadrant (FIG. 5b) [1, 6]: Q4; inhibition at 10 µM [3, 7]: 17%; inhibition at 10 µM [5, 8]: -35%
C=CCN1CC[C@]23c4c5ccc(O)c4O[C@H]2C(=O)CC[C@@]3(O)[C@H]1C5 [Naloxone] | 1 | 1 | Q4 |  | inhibition at 10 µM [3, 9]: 21%; Fibrin % inhibition [5]: −41%
OC(Cn1cncn1)(Cn1cncn1)c1ccc(F)cc1F [Fluconazole] | 0 | 0 | Q4 | 3 | inhibition at 10 µM [3, 9]: 19%
CC[C@@H](CO)NCCN[C@@H](CC)CO [Ethambutol] | 1 | 1 |  |  | Quadrant (FIG. 5b) [1, 10]: Q4; inhibition at 10 µM [3, 11]: 14%; inhibition at 10 µM [5, 12]: 12%
CC(=O)OC1CC2CCC1(C)C2(C)C (stereo not drawn) [Bornyl Acetate] | 0 | 0 |  |  | Quadrant (FIG. 5b) ([1]; primary HTS, 10 μM): Q4; inhibition at 10 µM [3, 13]: 2%; inhibition at 10 µM [5, 14]: -38%
OCCN1CCN(CCCN2c3ccccc3Sc3ccc(C(F)(F)F)cc32)CC1 [Fluphenazine] | 1 | 0 | Q4 | 7 | inhibition at 10 µM [3, 9]: 20%
COC1=CC(=O)C[C@@H](C)[C@]12Oc1c(Cl)c(OC)cc(OC)c1C2=O [Griseofulvin] | 1 | 0 |  |  | Quadrant (FIG. 5b) [1, 6]: Q4; inhibition at 10 µM [3, 15]: 13%; inhibition at 10 µM [5, 16]: 9%
O=C(CCCN1CCC(O)(c2ccc(Cl)cc2)CC1)c1ccc(F)cc1 [Haloperidol] | 1 | 1 | Q4 | -22 | inhibition at 10 µM [3, 9]: 12%
OC[C@@H](O)[C@H]1O[C@@H]2O[C@H](C(Cl)(Cl)Cl)O[C@@H]2[C@H]1O [Chloralose] | 1 | 0 | Q4 | -14 | inhibition at 10 µM [3, 17]: 9%
C#Cc1cccc(Nc2ncnc3cc(OCCOC)c(OCCOC)cc23)c1 [Erlotinib] | 1 | 0 |  |  | Quadrant (FIG. 5b) [1, 10]: Q4; inhibition at 10 µM [3, 11]: -8%; inhibition at 10 µM [5, 12]: -52%
c1ccc(C2CN3CCSC3=N2)cc1 (stereo not drawn) [Tetramizole Hydrochloride] | 8 | 5 | Q2 | 107 | inhibition at 10 µM [3, 17]: 112%
Fc1ccc(C(c2ccc(F)cc2)N2CCN(C/C=C/c3ccccc3)CC2)cc1 [Flunarizine] | 1 | 1 | Q4 | -10 | inhibition at 10 µM [3, 9]: 12%
CCCCCCCCCCCCCCCC(=O)OC/C=C(C)/C=C/C=C(C)/C=C/C1=C(C)CCCC1(C)C [Retinyl Palmitate] | 0 | 0 |  |  | Quadrant (FIG. 5b) [1, 18]: Q4; inhibition at 10 µM [3, 19]: 11%; inhibition at 10 µM [5, 20]: -15%
CCn1cc(C(=O)O)c(=O)c2cc3c(cc21)OCO3 [Oxolinic Acid] | 0 | 1 |  |  | Quadrant (FIG. 5b) [1, 6]: Q4; inhibition at 10 µM [3, 7]: 13%; inhibition at 10 µM [5, 8]: 7%
Nc1ccc(S(=O)(=O)Nc2nccs2)cc1 [Sulfathiazole] | 0 | 0 |  |  | Quadrant (FIG. 5b) ([1]; HTS of 1907 compounds, quadrant by fibrin and LPS inhibition): Q4; inhibition at 10 µM ([3]; Rattus norvegicus, Microglia, primary microglia HTS, 10 μM, LPS-stimulated, cell size >800 μm^2 as marker of activation; read-out: LPS % inhibition): 9%; inhibition at 10 µM ([5]; Rattus norvegicus, Microglia, primary microglia HTS, 10 μM, fibrin-stimulated, cell size >800 μm^2 as marker of activation): -17%
Oc1cccc(O)c1 [Resorcinol] | 0 | 0 |  |  | Quadrant (FIG. 5b) [1, 18]: Q4; inhibition at 10 µM ([3]; Rattus norvegicus, Microglia, 48 h, primary microglia HTS, LPS stimulation, cell size >800 μm2 as marker of activation; read-out: LPS % inhibition): 8%; inhibition at 10 µM [5, 20]: -4%

Structure (SMILES) | Fibrin % cell toxicity ([2]; rat) [%] | LPS % cell toxicity ([4]; rat) [%] | Quadrant (FIG. 5b) [1] | inhibition at 10 µM ([5]; Rattus norvegicus, Microglia) [%] | further results
Nc1ccc(S(=O)(=O)Nc2ncccn2)cc1 [Sulfadiazine] | 0 | 0 | Q4 | -19 | inhibition at 10 µM [3, 17]: 13%
CC(=O)Nc1nnc(S(N)(=O)=O)s1 [Acetazolamide] | 0 | 1 | Q4 | -12 | inhibition at 10 µM [3, 17]: 4%
C[N+](C)(C)CCOP(=O)(O)OP(=O)([O-])OC[C@H]1O[C@@H](n2ccc(N)nc2=O)[C@H](O)[C@@H]1O [Citicoline] | 1 | 0 |  |  | Quadrant (FIG. 5b) ([1]; primary HTS, 10 μM): Q4; inhibition at 10 µM [3, 13]: 16%; inhibition at 10 µM [5, 14]: 5%
CCCN1CCCC[C@H]1C(=O)Nc1c(C)cccc1C [Ropivacaine, Ropivacaine Hydrochloride] |  |  |  |  | Quadrant (FIG. 5b) [1, 18]: Q4; Fibrin % cell toxicity [2]: 1%; LPS % inhibition [3]: 5%; LPS % cell toxicity [4]: 0%; Fibrin % inhibition ([5]; primary microglia HTS, fibrin stimulation, cell size >800 μm2 as marker of activation): 18%
CC(Cc1ccc(O)cc1)NCC(O)c1cc(O)cc(O)c1 (stereo not drawn) [Fenoterol] | 0 | 0 |  |  | Quadrant (FIG. 5b) [1, 6]: Q4; inhibition at 10 µM [3, 15]: 26%; inhibition at 10 µM [5, 16]: 40%
N[C@@H](Cc1ccc(O)c(O)c1)C(=O)O [Levodopa] | 1 | 0 |  |  | Quadrant (FIG. 5b) [1, 6]: Q4; inhibition at 10 µM [3, 15]: -5%; inhibition at 10 µM [5, 16]: 17%
C=CCN1CC[C@]23c4c5ccc(O)c4O[C@H]2C(=O)CC[C@@]3(O)[C@H]1C5 [Naloxone Hydrochloride] | 0 | 0 | Q4 |  | LPS % inhibition [3]: 11%; Fibrin % inhibition [5]: −16%
O=C1CN=C(c2ccccc2)c2cc([N+](=O)[O-])ccc2N1 [Nitrazepam] | 1 | 0 |  |  | Quadrant (FIG. 5b) [1, 6]: Q4; inhibition at 10 µM [3, 7]: -4%; inhibition at 10 µM [5, 8]: -1%
OCC(S)CS (stereo not drawn) [Dimercaptopropanol, Dimercaprol] |  |  |  |  | Quadrant (FIG. 5b) [1, 10]: Q4; Fibrin % cell toxicity [2]: 1%; LPS % inhibition ([3]; primary microglia HTS, LPS stimulation, compounds at 10 μM): 16%; LPS % cell toxicity [4]: 0%; Fibrin % inhibition ([5]; primary microglia HTS, fibrin stimulation, compounds at 10 μM): 49%
CC(=O)OCC(=O)[C@@]1(O)[C@H](C)C[C@H]2[C@@H]3CCC4=CC(=O)C=C[C@]4(C)[C@@]3(F)[C@@H](O)C[C@@]21C [Dexamethasone acetate, reference compound] | 4 | 7 | Q2 | 112 | inhibition at 10 µM [3, 9]: 105%; IC50 ([3]; Rattus norvegicus, Microglia, read-out: LPS_IC50 (uM)): 0.002 µM; IC50 ([5]; Rattus norvegicus, Microglia, read-out: fib_IC50 (uM)): 0.002 µM
CO[C@]12C[C@@H](COC(=O)c3cncc(Br)c3)CN(C)[C@@H]1Cc1cn(C)c3cccc2c13 [Nicergoline] | 1 | 0 |  |  | Quadrant (FIG. 5b) [1, 6]: Q4; inhibition at 10 µM [3, 7]: 7%; inhibition at 10 µM [5, 8]: 6%
Cc1ccc(-c2nc3ccc(C)cn3c2CC(=O)N(C)C)cc1 [Zolpidem, Zolpidem Tartrate] |  |  | Q4 |  | Fibrin % cell toxicity [2]: 0%; LPS % inhibition ([3]; 10 µM): 4%; LPS % cell toxicity [4]: 0%; Fibrin % inhibition ([5]; 10 µM): −12%
Oc1ccc2c3c1O[C@H]1[C@@H](O)CC[C@@]4(O)[C@@H](C2)N(CC2CCC2)CC[C@]314 [Nalbuphine] | 1 | 0 | Q4 |  | inhibition at 10 µM [3, 9]: 16%; Fibrin % inhibition [5]: −8%
CC(C)NCC(O)c1ccc(O)c(O)c1 (stereo not drawn) [Isoprenaline] | 0 | 0 |  |  | Quadrant (FIG. 5b) [1, 6]: Q4; inhibition at 10 µM [3, 15]: 37%; inhibition at 10 µM [5, 16]: 29%
CO/N=C(\C(=O)N[C@@H]1C(=O)N2C(C(=O)O)=C(CSc3nc(=O)c(=O)[nH]n3C)CS[C@H]12)c1csc(N)n1 [Ceftriaxone] | 1 | 0 | Q4 | -16 | inhibition at 10 µM [3, 17]: 12%
CC(C)NCC(O)c1ccc2ccccc2c1 (stereo not drawn) [Pronetalol Hydrochloride] | 1 | 0 |  |  | Quadrant (FIG. 5b) [1, 18]: Q4; inhibition at 10 µM [3, 19]: 10%; inhibition at 10 µM [5, 20]: -12%

— US20210330611A1, “THERAPY FOR NEUROLOGICAL DISEASES/DISORDERS” (priority 2020, published 2021)
